# Target: T1, human CYP2C19 (Homo sapiens, UniProt P33261)
# T1 construct: purchased Sumitomo Chemical Co., Ltd
# Assay: Test 3 human CYP2C19 activity inhibition test (S-(+)-mephenyloin to 4'-hydroxymephenyloin)
# Format: in vitro ADME
# Settings: test compound 10 μM; microsomes from human CYP2C19 expression system; formed 4'-hydroxymephenyloin compared with control
# Procedure: Test 3 (Human CPY2C19 Activity Inhibition Test)
# CYP2C19 specifically induces the metabolic reaction of from S-(+)-mephenyloin into 4′-hydroxymephenyloin. Using the CYP2C19 expression system, the inhibitory effect of each test substance was investigated based on the amount (concentration) of formed 4′-hydroxymephenylion as an index of CYP2C19 activity.
# a) Metabolic Activity Test
# As a reaction mixture, a 125 μmol/L solution of S-(+)-mephenyloin in methanol (50 μL) and a 25 μmol/L solution of each test substance in methanol (0, 10, 100 or 200 μL) were added to 10-mL test tube made of glass, and the solvent was distilled off under a nitrogen gas stream (40° C.).
# After incubated at 37° C. for 10 minutes, a 12% aqueous solution of perchloric acid (50 μL) was added to terminate the reaction.
# Subsequent to the termination of the reaction, 10 μg/mL methyl p-hydroxybenzoate (50 μL) as an internal standard (I.S.) and diethyl ether (2 mL) were added. The resulting mixture was shaken for 10 minutes, and then centrifuged (3,000 rpm, 10 minutes). The organic layer was separately collected, and under a nitrogen gas stream (40° C.), the solvent was distilled off. The residue was dissolved in a mobile phase (200 μL), and an analysis was conducted by high performance liquid chromatography (HPLC).
# Using a solution of 4′-hydroxymephenyloin in lieu of the S-(+)-mephenyloin solution, a calibration line was prepared following the above-described reaction method. Quantitation was conducted based on a peak area ratio of 4′-hydroxymephenyloin to the I.S. Comparing the formed amount of 4′-hydroxymephenyloin as a control with that of 4′-hydroxymephenyloin at the time of the existence of the test compound, the comparison result was used as an index of activity.
# HPLC was conducted under the following HPLC conditions A or HPLC conditions B. […]
# T1 sequence (P33261 whole entry): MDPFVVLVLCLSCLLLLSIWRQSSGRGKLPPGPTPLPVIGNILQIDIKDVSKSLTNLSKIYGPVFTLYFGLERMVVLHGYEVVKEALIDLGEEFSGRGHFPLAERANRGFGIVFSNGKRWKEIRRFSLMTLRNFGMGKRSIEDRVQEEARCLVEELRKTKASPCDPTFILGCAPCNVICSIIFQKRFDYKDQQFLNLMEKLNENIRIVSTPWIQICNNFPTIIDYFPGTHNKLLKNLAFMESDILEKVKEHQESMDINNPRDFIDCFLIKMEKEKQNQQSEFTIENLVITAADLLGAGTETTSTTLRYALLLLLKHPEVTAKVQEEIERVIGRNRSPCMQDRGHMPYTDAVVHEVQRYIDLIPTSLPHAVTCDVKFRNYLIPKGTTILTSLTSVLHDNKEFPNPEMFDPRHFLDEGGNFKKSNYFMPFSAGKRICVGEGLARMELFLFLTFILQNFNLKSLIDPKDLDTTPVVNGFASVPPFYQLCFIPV
row,SMILES,CYP2C19 activity inhibition (%)
1,COCCCOc1ccnc(C[S+]([O-])c2nc3ccccc3n2N)c1C (racemic) [Example 21],78.6
2,Cc1c(OCCOCC(F)(F)F)ccnc1C[S+]([O-])c1nc2ccccc2n1N (racemic) [Example 23],75.6
3,COc1c(OCCOCC(F)(F)F)ccnc1C[S+]([O-])c1nc2ccccc2n1N (racemic) [Example 24],81.9
4,Cc1c(OCC(F)(F)F)ccnc1C[S+]([O-])c1nc2ccccc2n1NCCN(C)C (racemic) [Example 48],72.3
5,COc1c(OCC(F)(F)F)ccnc1C[S+]([O-])c1nc2ccccc2n1NCCCO (racemic) [Example 59],61.7
6,Cc1c(OCCOCC(F)(F)F)ccnc1C[S+]([O-])c1nc2ccccc2n1NCCCO (racemic) [Example 60],71.4
7,COc1c(OCCOCC(F)(F)F)ccnc1C[S+]([O-])c1nc2ccccc2n1NCCCO (racemic) [Example 61],64.8

# Other lines, results leading:
row,CYP2C19 activity inhibition (%),SMILES
1,72.1,COCCCOc1ccnc(C[S+]([O-])c2nc3ccccc3n2NCC(C)O)c1C (mixture of isomers) [Example 63]
2,67.3,COCCOc1ccnc(C[S+]([O-])c2nc3ccccc3n2NCCCO)c1C (racemic) [Example 58]
3,95.3,Cc1c(OCCCOCC(F)(F)F)ccnc1C[S+]([O-])c1nc2ccccc2n1NCCCO (racemic) [Example 62]

# Same assay, conditions: test compound 10 μM; microsomes from human CYP2C19 expression system; formed 4'-hydroxymephenyloin compared with control; 10 µM
row,CYP2C19 activity inhibition (%),SMILES
1,67.4,"COCCCOc1ccnc(C[S+]([O-])c2nc3ccccc3n2NCCCO)c1C (single isomer, unassigned; (+)) [(+) Isomer of Example 57]"
2,77.6,"COCCCOc1ccnc(C[S+]([O-])c2nc3ccccc3n2NCCCO)c1C (single isomer, unassigned; (-)) [(−) Isomer of Example 57]"

# Same assay, conditions: test compound 10 μM; microsomes from human CYP2C19 expression system; formed 4'-hydroxymephenyloin compared with control; listed as Racemic mixture of Example 36, 10 µM
row,SMILES,CYP2C19 activity inhibition (%)
1,Cc1c(OCC(F)(F)F)ccnc1C[S+]([O-])c1nc2ccccc2n1NCCCO (racemic) [Example 36],61.7

# Same assay, conditions: test compound 10 μM; microsomes from human CYP2C19 expression system; formed 4'-hydroxymephenyloin compared with control; listed as Racemic mixture of Example 57, 10 µM
row,CYP2C19 activity inhibition (%),SMILES
1,73,COCCCOc1ccnc(C[S+]([O-])c2nc3ccccc3n2NCCCO)c1C (racemic) [Example 57]
